Entries after “also recorded” stand apart in the source; their conditions may differ.
Test system: patients with advanced CHF and reduced EF
Assay: Randomized double-blind placebo-controlled trial of intravenous acyl ghrelin: non-invasive hemodynamics (Innocor, Nexfin)
Format: in vivo
Text: Between 17 Feb. 2013 and 19 May 2015 we conducted a prospective double-blind, placebo-controlled, parallel-group, single centre randomized clinical trial with a one-time treatment of intravenous acyl ghrelin or placebo.
Patients were pre-screened in the Karolinska University Hospital heart failure clinic (FIG. 1) and had symptoms and signs of advanced CHF (New York Heart Association [NYHA] class III-IV) and an EF of ≤40%.
Ghrelin is a 28 amino acid peptide with a molecular weight of 3,371 g/mol. Half-time in plasma is 24-30 minutes. Concentrations in normal humans has variably been reported at 100-300 pmol/L (300-900 ng/L) for total ghrelin. There is limited data on acyl ghrelin but we recently measured acyl ghrelin in 41 healthy non-obese adults: fasting: mean±SD: 118±14 ng/L, 5-95th percentile 27-328 ng/L; trough 60 minutes post 260 kcal mixed meal: 80±12 ng/L, 5-95th percentile 21-293 ng/L. Synthetic acylated (active) human ghrelin (brand name Clinalfa Ghrelin (human) Acetate, product number 4071265; Bachem, Hauptstrasse 144, 4416 Bubendorf, Switzerland—hereafter referred to as ghrelin, was purchased from Bachem (Bubendorf, Switzerland) under license from Daiichi Sankyo (Tokyo, Japan). For each patient and treatment, a stock solution was prepared consisting of multiple vials of powder ghrelin (100 μg ghrelin/vial together with phosphate buffer), each vial dissolved in 1 mL sterile water for infusion (B. Braun, Germany) and visually inspected to be a clear and colorless solution, prior to adding 0.001 g (0.02 ml of 50 g/L stock) human albumin (for concentration 0.001 g/mL=0.1%) to each vial and further mixed with normal saline (NaCl 9 mg/ml, B. Braun, Germany). The proportion of stock solution and saline were according to patient weight (Table 2), resulting in a total volume of 100 mL (to ensure the same volume infusion for all patients). The final intravenous infusion rate was 0.50 mL/min volume (total volume 60 mL), equivalent to 0.1 μg (30 pmol)/kg/min (total amount 12.0 μg/kg) of acyl ghrelin administered to all patients randomized to ghrelin. The infusion was given for 120 minutes and continued until all measurements at 120 minutes had been completed (thus delivering some additional ghrelin). The median total infusion duration was 171 minutes. Measurements were repeated 30 minutes after stopping infusion.
Patients were randomized in parallel by block randomization in groups of 4 using paper envelopes to ghrelin or placebo and the infusion was given by antecubital vein over 120 minutes. A dedicated study nurse prepared ghrelin and placebo for infusion and patients and all other investigators were blinded. Immediately prior to, during, and after the 120 minute infusion and also 30 minutes after stopping the infusion, blood samples were drawn and symptoms, signs, echocardiography, ECG, and non-invasive hemodynamics were assessed (FIG. 2). Patients were discharged to home and returned 2-5 days later for repeat measurements. Patients were followed prospectively for morbidity and mortality outcomes.
Non-invasive resting CO in was assessed in duplicate at each measurement using the Innocor® device (Innovision, Odense, Denmark). The Innocor is a non-invasive device that measures pulmonary blood flow using an inert gas rebreathing technique, and measures VO2 directly. It has been validated for CO and VO2 at rest and exercise (Gabrielsen et al., 2002; Stahlberg et al., 2009).
The Innocor® directly measures pulmonary blood flow, VO2 and SpO2. From these variables, shunt fraction, cardiac output, SVO2 and A-V O2 difference was then calculated using standard formulas. Beat-by-beat ECG, blood pressure and the first derivative of the pressure signal (+dP/dt) were measured using a Nexfin® device (described below). Fifteen minutes of continuous beat-by-beat Nexfin data were averaged at the time of Innocor measurements. Estimated systemic vascular resistance (eSVR) was subsequently calculated as mean blood pressure/cardiac output×80. […]

## CCCCCCCC(=O)OC[C@H](NC(=O)[C@H](CO)NC(=O)CN)C(=O)N[C@@H](Cc1ccccc1)C(=O)N[C@@H](CC(C)C)C(=O)N[C@@H](CO)C(=O)N1CCC[C@H]1C(=O)N[C@@H](CCC(=O)O)C(=O)N[C@@H](Cc1cnc[nH]1)C(=O)N[C@@H](CCC(N)=O)C(=O)N[C@@H](CCCNC(=N)N)C(=O)N[C@H](C(=O)N[C@@H](CCC(N)=O)C(=O)N[C@@H](CCC(N)=O)C(=O)N[C@@H](CCCNC(=N)N)C(=O)N[C@@H](CCCCN)C(=O)N[C@@H](CCC(=O)O)C(=O)N[C@@H](CO)C(=O)N[C@@H](CCCCN)C(=O)N[C@@H](CCCCN)C(=O)N1CCC[C@H]1C(=O)N1CCC[C@H]1C(=O)N[C@@H](C)C(=O)N[C@@H](CCCCN)C(=O)N[C@@H](CC(C)C)C(=O)N[C@@H](CCC(N)=O)C(=O)N1CCC[C@H]1C(=O)N[C@@H](CCCNC(=N)N)C(=O)O)C(C)C [Ghrelin]
2-5 day follow-up visit
  A-V O2-diff: 27.4 ± 10.0 %
  CO: 4.21 ± 1.27 L/min
  HR: 71.6 ± 10.8 bpm
  PBF: 3.58 ± 0.74 L/min
  SV: 59.9 ± 18.5 mL
  Shunt: 15.7 ± 16.7%
  SpO2: 94.0 ± 3.9+ %
  SvO2: 66.4 ± 18.4 %
  VO2: 0.22 ± 0.06 L/min
2-5 days follow-up
  CO compared to placebo group: still a significant increase in CO
30 min after stop Infusion
  A-V O2 diff: 21.6 ± 12.1%
  CO: 4.94 ± 1.70 L/min
  PBF: 4.14 ± 0.97 L/min
  SV: 74.31 ± 26.09 mL
  Shunt: 12.6 ± 14.3%
  SpO2: 94.7 ± 3.9%
  SvO2: 73.3 ± 12.8%
  VO2: 0.19 ± 0.08 L/min
  dBP: 58.9 ± 7.5 mmHg
  dP/dt: 602 ± 252 mmHg/s
  mBP: 75.5 ± 12.0 mmHg
  sBP: 105.7 ± 20.5 mmHg
Baseline
  A-V O2 diff: 27.6 ± 14.3%
  CO: 4.08 ± 1.15 L/min
  PBF: 3.61 ± 0.70 L/min
  SV: 59.10 ± 17.82 mL
  Shunt: 9.9 ± 10.6%
  SpO2: 95.2 ± 3.4%
  SvO2: 67.9 ± 14.4%
  VO2: 0.20 ± 0.07 L/min
  dBP: 58.6 ± 8.4 mmHg
  dP/dt: 742 ± 267 mmHg/s
  mBP: 74.9 ± 11.3 mmHg
  sBP: 104.7 ± 18.4 mmHg
Baseline (Table 8)
  A-V O2-diff: 24.4 ± 7.6%
  CO: 4.08 ± 1.15 L/min
  HR: 69.6 ± 9.1 bpm
  PBF: 3.61 ± 0.70 L/min
  SV: 59.9 ± 19.0 mL
  Shunt: 9.9 ± 10.6%
  SpO2: 95.2 ± 3.4%
  SvO2: 67.7 ± 14.3%
  VO2: 0.2 ± 0.07 L/min
Infusion + 60 min
  A-V O2 diff: 23.6 ± 12.9 %
  CO: 4.64 ± 1.31 L/min
  PBF: 3.76 ± 0.76 L/min
  SV: 69.64 ± 22.75 mL
  Shunt: 16.8 ± 11.8 %
  SpO2: 93.5 ± 3.5 %
  SvO2: 70.0 ± 13.8%
  VO2: 0.19 ± 0.07 L/min
  dBP: 56.5 ± 8.7 mmHg
  dP/dt: 535 ± 213 mmHg/s
  mBP: 71.4 ± 10.2 mmHg
  sBP: 99.0 ± 17.6 mmHg
Infusion + 120 min
  A-V O2 diff: 20.9 ± 8.5 %
  CO: 5.23 ± 1.98 L/min
  PBF: 4.08 ± 0.90 L/min
  SV: 79.83 ± 30.30 mL
  Shunt: 18.0 ± 12.3 %
  SpO2: 93.4 ± 3.6 %
  SvO2: 71.7 ± 10.1%
  VO2: 0.19 ± 0.08 L/min
  dBP: 56.1 ± 10.3 mmHg
  dP/dt: 531 ± 191 mmHg/s
  mBP: 70.9 ± 13.1 mmHg
  sBP: 99.0 ± 21.1 mmHg
Between baseline and 120 minutes
  change in HR: fell slightly
During and after infusion
  change in calculated SV: increased with infusion and fell after stop of infusion
  change in systolic, diastolic and mean arterial blood pressure: no changes or differences in changes; also recorded: no changes in blood pressure; also recorded: no effect
During and after infusion, primary outcome
  change in CO: increased with infusion and fell after stop of infusion
In vivo
  change in oxygen consumption (VO2): no change
  change in pulmonary blood flow: increased
With infusion
  change in estimated SVR: fell and decrease

From patent US20230346889A9, “TREATMENT OF ACUTE HEART FAILURE” (AnaCardio R&D AB, priority 2019, published 2023)
